According to PMC8533176, “1,5-Benzodiazepin-2(3H)-ones: In Vitro Evaluation as Antiparkinsonian Agents” (Antioxidants, 2021):
Read-outs that look alike come from different tables or passages of the source.

Assays:
SH-SY5Y cells [1] = test: cells; type: cell-based, human; settings: for EC50: MTT
SH-SY5Y cells [2] = test: Resazurin cell viability assay under H2O2; type: cell-based, human; settings: 24-h incubation, resazurin
[3] = ABTS radical scavenging assay; type: biochemical; settings: for IC50: 30-min incubation; for ABTS Assay TEAC50: Equivalent antioxidant capacity at Trolox 50 mM; for ABTS Assay TEAC100: Equivalent antioxidant capacity at Trolox 100 mM
Protocol: The mixture was stored in the dark at room temperature for 16 h. […] All the compounds tested were dissolved in EtOH. […] The degree of decolorization was calculated as the percentage reduction of absorbance. […] Trolox was used as a reference antioxidant.

[4] = Chemical reactivity with H2O2; type: physicochemical; settings: H2O2 500 µM, 37 °C, 4 h, DMEM:F12 without cells
Protocol: In our case, before running the protection experiments under oxidative stress conditions, we carried out experiments to assess the potential reactivity of compounds 9, 11, 13, and 18 at four different concentrations (5, 10, 20, and 40 µM) with H2O2 500 µM at 37 °C for 4 h in DMEM:F12 (without phenol red, FBS, and cells). Curcumin was used as a control compound.

[5] = Ferric reducing antioxidant power (FRAP) assay; type: biochemical; design: FRAP Assay Trolox Equivalents: unit not given here; settings: for FRAP Assay Antioxidant Capacity (%) at 100 uM: compound at 100 uM; for FRAP Assay Antioxidant Capacity (%) at 200 uM: compound at 200 uM
Protocol: FRAP reagent was prepared by mixing 10 mL of 300 mM acetate buffer with 1 mL of 10 mM 2,4,6-tripyridyl-S-triazine (TPTZ) in HCl 40 mM and 1mL of FeCl3·6H2O 20 mM. […] Trolox was used as assay control.

HepG2 cells = test: Cytotoxicity, MTT assay, HepG2; type: cell-based; settings: Homo sapiens
Protocol: (§1) All compounds tested were dissolved and eventually further diluted in dimethylsulfoxide (DMSO). After overnight incubation, the cells were treated with different compound concentrations (5, 10, 20, 50, 100, 150, 200 µM) in a final volume of 200 µL with four replicates each. […] Cell proliferation or viability was measured using the 3-(4,5-dimethylthiazol-2-yl)-2,5-diphenyl tetrazolium bromide (MTT) assay. The MTT assay was optimized taking into account the number of cells plated per well, to work in the linear part of the cell density vs. MTT absorbance calibration curve, which allows achieving a maximum absorbance in the range of 0.8–1.0 in each well at the end of the experiment. In addition to that, the number of cells seeded for each experiment was optimized in agreement with the time scale of the experiment.
(§2) After cell treatment, 20 µL of MTT (5 mg/mL) was added to each well, and the plate was incubated at 37 °C in the dark for 2 h. Supernatants were removed, and the formazan crystals were solubilized in DMSO (200 µL/well), under 10 min shaking at room temperature. The reduction of MTT was quantified by absorbance at 570 nm in a Varioskan microplate reader (Thermo Fisher Scientific, Vantaa, Finland). Effects of the test compounds on cell viability were calculated using cells treated with a vehicle as a control. For IC50 and LD50 calculations, the data were subjected to linear regression analysis, and the regression lines were plotted for the best fit. The IC50 (inhibition of cell viability) concentrations were calculated using the respective dose–response curves.

SH-SY5Y cells [6] = test: Cytotoxicity, MTT assay, SH-SY5Y; type: cell-based; settings: Homo sapiens, read-out: SH-SY5Y IC50
Protocol: as §1, §2

SH-SY5Y cells [7] = test: Neuroprotection against H2O2-induced oxidative stress, MTT; settings: H2O2 250 µM 24 h; compounds 5-50 µM 24 h before; Figure 8
[8] = Kinetic solubility by UV spectrometry; type: physicochemical; settings: PBS 50 mM, aqueous buffer, kinetic from dmso stock
Protocol: A modified protocol was used from that described by Hoelke et al. for the determination of the kinetic solubility from DMSO compound solutions. A compound calibration curve (compound concentration vs UV absorption) was prepared for each compound with concentrations of 10, 20, 50, 100, and 200 µM. Each compound dilution was carried out by pipetting defined volumes of a 20 mM stock compound solution in DMSO into vials and adding PBS 50 mM to reach a final volume of 1 mL/well. The final amount of DMSO per well was 2%. For the lower compound concentrations, an additional volume of DMSO was added to each well to reach 2% DMSO. Then, 200 µL of each dilution was transferred to a new 96-well culture plate for the measurement of the UV-spectra. One well in each row was left without a compound as a blank, and its UV absorbance was used as an offset correction. The experiments were performed in duplicate.
In parallel, compound saturation solutions were reached and filtered from 20 mM compound stock in DMSO: 10 µL of a 20 mM stock solution was dispensed into 190 µL of PBS 10 mM. The solutions were mixed, shaken on a microplate shaker for two hours, and then 160 µL of each solution was filtered and transferred to a new well plate for UV absorption measurement.
Measurement of the UV-spectra was performed using a Varioskan microplate reader, and spectra were taken in the range of 270–600 nm. Spectral bandwidth was set to 5 nm, and the data pint interval was 10 nm. The experiments were carried out in triplicate.

SH-SY5Y cells [9] = test: LDH release under H2O2; type: cell-based, human; settings: H2O2 250 µM 24 h; compounds 24 h before; Figure 9
[10] = HepG2, MTT, cytotoxicity, read-out: HepG2 IC50

Compound	H2O2 lethal dose (LD50 / EC50) (SH-SY5Y cells [1]) [µM]	H2O2 lethal dose (LD50 / EC50), resazurin method (SH-SY5Y cells [2]) [µM]	EC50 (SH-SY5Y cells [1]; Homo sapiens, SH-SY5Y, 6-OHD 48 h, read-out: concentration at which the cell viability was reduced by 50%) [µM]	IC50 [3] [µM]	ABTS Assay TEAC50 [3]	ABTS Assay TEAC100 [3]	Reaction with H2O2 [4]	FRAP Assay Trolox Equivalents [5]	FRAP Assay Antioxidant Capacity (%) at 100 uM [5] [%]	FRAP Assay Antioxidant Capacity (%) at 200 uM [5] [%]	IC50 (HepG2 cells; [10]) [µM]	IC50 (SH-SY5Y cells [6]; MTT, cytotoxicity) [µM]	Neuroprotection effect, cell viability (MTT) (SH-SY5Y cells [7])	solubility [8] [µM]	melting point [°C]	LDH leakage (SH-SY5Y cells [9])	IC50 (HepG2 cells; HepG2, read-out: HepG2 IC50) [µM]	IC50 (SH-SY5Y cells [6]) [µM]	EC50 (SH-SY5Y cells [1]; MPP+ 48 h, read-out: concentration that resulted in 50% cell viability) [µM]
OO [Compound H2O2, hydrogen peroxide, reference compound]	250	268																	
NCCc1cc(O)c(O)cc1O [Compound 6-OHD, 6-hydroxydopamine]			250																
O=C1CC(c2ccccc2)=Nc2ccc(F)cc2N1 [Compound 11, 8-Fluoro-4-phenyl-1H-1,5-benzodiazepin-2(3H)-one]				306 ± 34.6	0.35	0.17	did not show any significant reaction	0.56	28.9	49.8	> 250	> 250	high variable neuroprotection results at concentrations higher than 10 µM	< 20					
O=C1CC(c2ccccc2)=Nc2cc(F)ccc2N1 [Compound 13, 7-Fluoro-4-phenyl-H-1,5-benzodiazepin-2(3H)-one]				325 ± 55	0.36	0.19	did not show any significant reaction	0.79	40.7	61.6	> 250	> 250		< 20	205.7				
O=C1CC(c2ccccc2)=Nc2cc(F)c(F)cc2N1 [Compound 9, 7,8-Difluoro-4-phenyl-1H-1,5-benzodiazepin-2(3H)-one]				432 ± 68	0.36	0.18	did not show any significant reaction	0.43	21.9	37.1	> 250	> 250		< 50		reduced LDH leakage to some degree			
CC1=Nc2c(F)c(F)c(F)c(F)c2NC(=O)C1 [Compound 1, 6,7,8,9-Tetrafluoro-4-methyl-1H-1,5-benzodiazepin-2(3H)-one]				576 ± 40	0.33	0.16		0.01	0.5	0.5	> 250	> 250		> 200	155.2				
CC1=Nc2c(F)c(F)c(F)c(F)c2N(C)C(=O)C1 [Compound 2, 6,7,8,9-tetrafluoro-1,4-dimethyl-1H-1,5-benzodiazepin-2(3H)-one]				> 1000				0.02	1.00	0.5	> 250	> 250		> 200	132.2				
O=C1CC(c2ccccc2)=Nc2c(F)c(F)c(F)c(F)c2N1 [Compound 3, 6,7,8,9-tetrafluoro-4-phenyl-1H-1,5-benzodiazepin-2(3H)-one]				> 1000				0.03	1.5	1.8	> 250	> 250		< 100	253.3				
CN1C(=O)CC(c2ccccc2)=Nc2cc(F)c(F)cc21 [Compound 10, 7,8-Difluoro-1-methyl-4-phenyl-1H-1,5-benzodiazepin-2(3H)-one]				> 1000				0.01	0.3	0.6	> 250	193 ± 15.9		> 200	115.8				
CN1C(=O)CC(c2ccccc2Cl)=Nc2c(F)c(F)c(F)c(F)c21 [Compound 8, 6,7,8,9-tetrafluoro-4-(2-chlorophenyl)-1-methyl-1H-1,5-benzodiazepin-2(3H)-one]				> 1000				0.01	0.6	0.2				< 100	128.7		207 ± 27	150 ± 17	
CN1C(=O)CC(c2ccccc2)=Nc2cc(F)ccc21 [Compound 14, 7-Fluoro-1-methyl-4-phenyl-1H-1,5-benzodiazepin-2(3H)-one]				> 1000				0.01	0.3	0.6				> 200	107.7		233 ± 18.7	220 ± 27.9	
C[n+]1ccc(-c2ccccc2)cc1 [MPP^+, 1-Methyl-4-phenylpyridinium]																			700
